This note sets out measurements from patent publication US20240246960A1 (adMare Therapeutics Society, priority 2021, published 2024).

Test [1] addresses T1, DNA-PK phosphorylation at Serine 2056 (Homo sapiens, UniProt P78527).
T1 construct: host or cells: FaDu
Description: Cellular Assay for Inhibition of DNA-PK Phosphorylation at Serine 2056 (FaDu cells, neocarzinostatin, sandwich ELISA). Format: cell-based. Conditions: Table 1. The gist of the method: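 FaDu cells were pretreated with compound (0.3% DMSO) for 1 h, then exposed to neocarzinostatin at 1 μg/mL final for 2 h to induce DSBs. Protein-normalized lysates were assayed by MSD sandwich ELISA for total and pSer2056 DNA-PK. IC50 came from variable-slope fits of % inhibition relative to DMSO and NCS controls.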

Test [2] addresses T2, pDNA-PK ser2056 induction in HCT116 spheroids (Homo sapiens, UniProt P78527).
T2 construct: endogenous in cells; host or cells: HCT116 multicellular tumour spheroids
Kind of test: Multicellular tumour spheroid + radiation, pDNA-PK inhibition, HCT116. It counts as cell-based. Conditions: 20 Gy. The essentials:
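HCT116 spheroids (~0.5 mm) in MEM/10% FBS/10 mM glucose, 20% O2, 37 °C, pre-incubated 1 h with compound (10 or 5 μM down to 3.5 nM), irradiated 20 Gy, incubated 2 h more. Cryosections immunostained for pDNA-PK ser2056; EC50 (μM) for 50% reduction of radiation-induced pDNA-PK.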

[3] abbreviates: Example 7, spheroid, cell line HCT115 [sic], 20% O2, read-out: EC50 (pDNA-PK inhibition, immunohistochemical endpoint).
Setting [4] is: Example 8, spheroid, read-out: Cell line: HCT116 Immunohistochemical endpoint pDNA-PK inhibition EC50.
The mark [5] stands for this setting: Example 9 Study 2, 20% O2, read-out: Spheroid Cell line: HCT116 Immunohistochemical endpoint pDNA-PK inhibition EC50.

Like-named read-outs stand apart in the source and are kept apart here.

In test [1], `Cc1nc(C(F)(F)F)cn1[C@H]1CC[C@@H](Oc2nc(N3CCOCC3)cc3ncccc23)CC1` [Compound 17i, 4-(5-(((1s,4s)-4-(2-methyl-4-(trifluoromethyl)-1H-imidazol-1-yl)cyclohexyl)oxy)-1,6-naphthyridin-7-yl)morpholine] gave an IC50 of 100 to 1000 nM. Also, the concentration for a half-maximal effect (EC50) in test [2] (setting [3]), in test [2] (setting [4]) and in test [2] (setting [5]) was 1000 to 10000 nM in each case.

`FC(F)(F)c1cncn1[C@H]1CC[C@@H](Oc2nc(N3CCOCC3)cc3ncccc23)CC1` [Compound 17j, 4-(5-(((1s,4s)-4-(5-(trifluoromethyl)-1H-imidazol-1-yl)cyclohexyl)oxy)-1,6-naphthyridin-7-yl)morpholine] registered an IC50 in test [1] of 100 to 1000 nM. Moreover, the EC50 in test [2] (setting [3]), in test [2] (setting [4]) and in test [2] (setting [5]) was 500 to 1000 nM throughout.

For the molecule `c1cnc2cc(N3CCOCC3)nc(O[C@H]3CC[C@@H](Nc4ncc5sccc5n4)CC3)c2c1` [Compound 84, N-((1s,4s)-4-((7-Morpholino-1,6-naphthyridin-5-yl)oxy)cyclohexyl)thieno[3,2-d]pyrimidin-2-amine], in test [1], the IC50 is 100 to 1000 nM. For the same molecule, the half-maximal effective concentration (EC50) in test [2] (setting [3]) and in test [2] (setting [5]) was 500 to 1000 nM each time.

In test [1], `O=C(N[C@H]1CC[C@@H](Oc2nc(N3CCOCC3)cc3ncccc23)CC1)c1ccncn1` [Compound 118, N-((1s,4s)-4-((7-morpholino-1,6-naphthyridin-5-yl)oxy)cyclohexyl)pyrimidine-4-carboxamide] displayed a half-inhibitory concentration (IC50) of 100 to 1000 nM. Besides, the EC50 in test [2] (setting [3]) and in test [2] (setting [5]) was 1000 to 10000 nM in each case.

On to `FC(F)Oc1cnc(N[C@H]2CC[C@@H](Oc3nc(N4CCOCC4)cc4ncccc34)CC2)nc1` [Compound 35, 5-(Difluoromethoxy)-N-((1s,4s)-4-((7-morpholino-1,6-naphthyridin-5-yl)oxy)cyclohexyl)pyrimidin-2-amine], for which the half-maximal inhibitory concentration (IC50) in test [1] was < 100 nM. Also, the EC50 in test [2] (setting [3]), in test [2] (setting [4]) and in test [2] (setting [5]) was 1000 to 10000 nM in each case.

For the molecule `NC(=O)c1cnc(N[C@H]2CC[C@@H](Oc3nc(N4CCOCC4)cc4ncccc34)CC2)nc1` [Compound 52, 2-(((1s,4s)-4-((7-morpholino-1,6-naphthyridin-5-yl)oxy)cyclohexyl)amino)pyrimidine-5-carboxamide], in test [1], the concentration for half-maximal inhibition (IC50) is < 100 nM. The EC50 in test [2] (setting [3]) and in test [2] (setting [5]) was 10 to 500 nM throughout.

`c1cnc2cc(N3CCOCC3)nc(O[C@H]3CC[C@@H](Nc4ncnc5ccoc45)CC3)c2c1` [Compound 80a, N-((1s,4s)-4-((7-morpholino-1,6-naphthyridin-5-yl)oxy)cyclohexyl)furo[3,2-d]pyrimidin-4-amine] returned an IC50 in test [1] of 100 to 1000 nM. For the same molecule, the EC50 in test [2] (setting [3]) and in test [2] (setting [5]) was 10 to 500 nM in each case.

`CCOCCOc1cnc(N[C@H]2CC[C@@H](Oc3nc(N4CCOCC4)cc4ncc(O)cc34)CC2)nc1` [Compound 19b, 5-(((1s,4s)-4-((5-(2-Ethoxyethoxy)pyrimidin-2-yl)amino)cyclohexyl)oxy)-7-morpholino-1,6-naphthyridin-3-ol] gave a 50% inhibitory concentration (IC50) in test [1] of 100 to 1000 nM. Moreover, the EC50 in test [2] (setting [3]), in test [2] (setting [4]) and in test [2] (setting [5]) was 10 to 500 nM throughout.

Turning to `O=C(N[C@H]1CC[C@@H](Oc2nc(N3CCOCC3)cc3ncccc23)CC1)c1ccnnc1` [Compound 121, N-((1s,4s)-4-((7-morpholino-1,6-naphthyridin-5-yl)oxy)cyclohexyl)pyridazine-4-carboxamide], the IC50 in test [1] was < 100 nM. Further, the 50% effective concentration (EC50) in test [2] (setting [3]) and in test [2] (setting [5]) was 1000 to 10000 nM in each case.

As to `c1cnc2cc(N3CCOCC3)nc(O[C@H]3CC[C@@H](Nc4cncnc4)CC3)c2c1` [Compound 28, N-((1s,4s)-4-((7-morpholino-1,6-naphthyridin-5-yl)oxy)cyclohexyl)pyrimidin-5-amine], in test [1], the IC50 is < 100 nM. In addition, the concentration for a half-maximal effect (EC50) in test [2] (setting [3]) and in test [2] (setting [5]) was 1000 to 10000 nM throughout.

Consider `O=C(N[C@H]1CC[C@@H](Oc2nc(N3CCOCC3)cc3ncccc23)CC1)c1ccco1` [Compound 132, N-((1s,4s)-4-((7-Morpholino-1,6-naphthyridin-5-yl)oxy)cyclohexyl)furan-2-carboxamide], for which the half-maximal inhibitory concentration (IC50) in test [1] is < 100 nM. Besides, the EC50 in test [2] (setting [3]), in test [2] (setting [4]) and in test [2] (setting [5]) was 10 to 500 nM throughout.

As to `O=C(N[C@H]1CC[C@@H](Oc2nc(N3CCOCC3)cc3ncccc23)CC1)c1ccncc1` [Compound 113, N-((1s,4s)-4-((7-morpholino-1,6-naphthyridin-5-yl)oxy)cyclohexyl)isonicotinamide], the IC50 in test [1] is < 100 nM. Besides, the EC50 in test [2] (setting [3]) and in test [2] (setting [5]) was 500 to 1000 nM in each case.

In the case of `O=C(N[C@H]1CC[C@@H](Oc2nc(N3CCOCC3)cc3ncccc23)CC1)c1ccc(C(F)(F)F)o1` [Compound 133, N-((1s,4s)-4-((7-Morpholino-1,6-naphthyridin-5-yl)oxy)cyclohexyl)-5-(trifluoromethyl)furan-2-carboxamide], the IC50 in test [1] was 100 to 1000 nM. Moreover, the concentration giving a half-maximal response (EC50) in test [2] (setting [3]), in test [2] (setting [4]) and in test [2] (setting [5]) was 1000 to 10000 nM in each case.

In the case of `COc1cnc(N[C@H]2CC[C@@H](Oc3nc(N4CCOCC4)cc4ncc(NS(C)(=O)=O)cc34)CC2)nc1` [Compound 203, N-(5-(((1s,4s)-4-((5-methoxypyrimidin-2-yl)amino)cyclohexyl)oxy)-7-morpholino-1,6-naphthyridin-3-yl)methanesulfonamide], in test [1], the IC50 was < 100 nM. Besides, the EC50 in test [2] (setting [3]) and in test [2] (setting [5]) was 10 to 500 nM each time.

Turning to `O=C(N[C@H]1CC[C@@H](Oc2nc(N3CCOCC3)cc3ncccc23)CC1)c1cc[nH]c1` [Compound 140, N-((1s,4s)-4-((7-morpholino-1,6-naphthyridin-5-yl)oxy)cyclohexyl)-1H-pyrrole-3-carboxamide], the IC50 in test [1] was < 100 nM. Moreover, the 50% effective concentration (EC50) in test [2] (setting [3]) and in test [2] (setting [5]) was 10 to 500 nM throughout.

Turning to `Cn1cnc2cnc(N[C@H]3CC[C@@H](Oc4nc(N5CCOCC5)cc5ncccc45)CC3)nc21` [Compound 88, 9-Methyl-N-((1s,4s)-4-((7-morpholino-1,6-naphthyridin-5-yl)oxy)cyclohexyl)-9H-purin-2-amine], the concentration for half-maximal inhibition (IC50) in test [1] is 100 to 1000 nM. The concentration giving a half-maximal response (EC50) in test [2] (setting [3]) and in test [2] (setting [5]) was 10 to 500 nM in each case.

With `CN(C)C(=O)c1cnc(N[C@H]2CC[C@@H](Oc3nc(N4CCOCC4)cc4ncccc34)CC2)nc1` [Compound 53, N,N-dimethyl-2-(((1s,4s)-4-((7-morpholino-1,6-naphthyridin-5-yl)oxy)cyclohexyl)amino)pyrimidine-5-carboxamide], the 50% inhibitory concentration (IC50) in test [1] was < 100 nM. Also, the EC50 in test [2] (setting [3]) and in test [2] (setting [5]) was 500 to 1000 nM each time.

Consider `Oc1cnc(N[C@H]2CC[C@@H](Oc3nc(N4CCOCC4)cc4ncccc34)CC2)nc1` [Compound 45, 2-(((1s,4s)-4-((7-morpholino-1,6-naphthyridin-5-yl)oxy)cyclohexyl)amino)pyrimidin-5-ol], for which the IC50 in test [1] was < 100 nM. The EC50 in test [2] (setting [3]) and in test [2] (setting [5]) was 500 to 1000 nM in each case.

`c1cnc(N[C@H]2CC[C@@H](Oc3nc(N4CCOCC4)cc4ncccc34)CC2)nc1` [Compound 20a, N-((1s,4s)-4-((7-Morpholino-1,6-naphthyridin-5-yl)oxy)cyclohexyl)pyrimidin-2-amine] gave an IC50 in test [1] of 100 to 1000 nM. The EC50 in test [2] (setting [3]), in test [2] (setting [4]) and in test [2] (setting [5]) was 500 to 1000 nM throughout.

Take `Cc1ccnc(N[C@H]2CC[C@@H](Oc3nc(N4CCOCC4)cc4ncccc34)CC2)n1` [Compound 48, 4-methyl-N-((1s,4s)-4-((7-morpholino-1,6-naphthyridin-5-yl)oxy)cyclohexyl)pyrimidin-2-amine]: in test [1], the IC50 was < 100 nM. Moreover, the EC50 in test [2] (setting [3]) and in test [2] (setting [5]) was 500 to 1000 nM in each case.

In test [1], `COc1ccnc(N[C@H]2CC[C@@H](Oc3nc(N4CCOCC4)cc4ncccc34)CC2)n1` [Compound 49, 4-methoxy-N-((1s,4s)-4-((7-morpholino-1,6-naphthyridin-5-yl)oxy)cyclohexyl)pyrimidin-2-amine] had an IC50 of 100 to 1000 nM. Further, the EC50 in test [2] (setting [3]) and in test [2] (setting [5]) was 1000 to 10000 nM in each case.

Take `COc1cnc(N[C@H]2CC[C@@H](Oc3nc(N4CCOCC4)cc4ncc(O)cc34)CC2)nc1` [Compound 19c, 5-(((1s,4s)-4-((5-Methoxypyrimidin-2-yl)amino)cyclohexyl)oxy)-7-morpholino-1,6-naphthyridin-3-ol]: in test [1], the 50% inhibitory concentration (IC50) was < 100 nM. Moreover, the EC50 in test [2] (setting [3]), in test [2] (setting [4]) and in test [2] (setting [5]) was 1000 to 10000 nM each time.

As to `COc1ccc(N[C@H]2CC[C@@H](Oc3nc(N4CCOCC4)cc4ncccc34)CC2)nn1` [Compound 38, 6-methoxy-N-((1s,4s)-4-((7-morpholino-1,6-naphthyridin-5-yl)oxy)cyclohexyl)pyridazin-3-amine], the IC50 in test [1] was < 100 nM. Besides, the concentration giving a half-maximal response (EC50) in test [2] (setting [3]) and in test [2] (setting [5]) was 1000 to 10000 nM in each case.

On to `FC(F)c1ccc2c(O[C@H]3CC[C@@H](Nc4ncccn4)CC3)nc(N3CCOCC3)cc2n1` [Compound 21, N-((1s,4s)-4-((2-(Difluoromethyl)-7-morpholino-1,6-naphthyridin-5-yl)oxy)cyclohexyl)pyrimidin-2-amine], for which, in test [1], the concentration for half-maximal inhibition (IC50) was in the range of 100 to 1000 nM. Moreover, the EC50 in test [2] (setting [3]) and in test [2] (setting [5]) was 10000 to 100000 nM each time.
